Results from publication PMC8839189, “Bis-Amiridines as Acetylcholinesterase and Butyrylcholinesterase Inhibitors: N-Functionalization Determines the Multitarget Anti-Alzheimer’s Activity Profile” (Molecules, 2022).
Several values for one entry are separate records, joined by “and”; a condition that tells them apart may be missing. Equal entries are not always repeated. Where two headings read alike, the source gives them in different places.

Experiments:
[1] = ABTS radical cation scavenging activity assay; conditions: 1 h incubation; for ABTS•+-Scavenging Activity, TEAC: Trolox equivalent antioxidant capacity; for IC50: ABTS•+ 100 μM
Method: Radical scavenging activity of the compounds was assessed using the ABTS radical cation (ABTS^•+) decolorization assay with modifications, described in detail in [30, 32]. ABTS (2,2′-azino-bis-(3-ethylbenzothiazoline-6-sulfonic acid)) was purchased from Tokyo Chemical Industry Co., Ltd. (Tokyo, Japan), potassium persulfate (dipotassium peroxodisulfate), Trolox (6-hydroxy-2,5,7,8-tetramethylchroman-2-carboxylic acid), HPLC-grade ethanol, and DMSO were obtained from Sigma-Aldrich. All tested compounds were dissolved in DMSO.
The reaction was monitored for 1 h with an interval of 1–10 min. Data are given for 1 h of incubation of compounds with ABTS^•+ (100 μM final concentration). The reduction in absorbance was measured spectrophotometrically at 734 nm using xMark UV/VIS microplate spectrophotometer (Bio-Rad, Hercules, CA, USA). Ethanol blanks were run in each assay. Values were obtained from three replicates of each sample and three independent experiments. Standard antioxidant Trolox was used as a reference compound. Trolox equivalent antioxidant capacity (TEAC) values were determined as the ratio between the slopes obtained from the linear correlation of the ABTS radical absorbance with the concentrations of tested compounds and Trolox.

[2] = target: T1, equine serum BChE (Equus caballus, UniProt P81908); assay: biochemical; conditions: n = 3
T1 construct: we used human erythrocyte AChE, equine serum BChE, and porcine liver CES; purchased Sigma-Aldrich; host or cells: equine serum
T1 sequence (P81908 whole entry): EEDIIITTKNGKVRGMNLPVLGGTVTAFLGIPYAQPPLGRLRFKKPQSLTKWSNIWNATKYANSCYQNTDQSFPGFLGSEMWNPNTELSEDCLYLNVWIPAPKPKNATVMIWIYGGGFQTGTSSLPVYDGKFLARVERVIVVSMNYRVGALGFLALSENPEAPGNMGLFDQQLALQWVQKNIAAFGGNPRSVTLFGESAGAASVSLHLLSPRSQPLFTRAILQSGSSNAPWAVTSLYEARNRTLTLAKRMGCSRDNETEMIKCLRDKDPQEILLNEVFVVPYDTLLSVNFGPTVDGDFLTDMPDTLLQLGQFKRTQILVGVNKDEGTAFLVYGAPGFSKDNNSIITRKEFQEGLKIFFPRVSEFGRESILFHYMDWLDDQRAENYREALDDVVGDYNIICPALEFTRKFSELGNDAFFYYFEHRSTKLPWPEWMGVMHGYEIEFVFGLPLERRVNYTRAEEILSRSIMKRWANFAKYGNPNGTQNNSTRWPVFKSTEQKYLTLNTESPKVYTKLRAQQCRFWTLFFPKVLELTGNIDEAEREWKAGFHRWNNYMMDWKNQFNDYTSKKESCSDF

[3] = target: T2, EeAChE PAS (Electrophorus electricus, UniProt O42275); assay: Propidium iodide displacement from the PAS of EeAChE; format: binding, Electric eel; conditions: compound concentration 20 µM
T2 construct: purchased Sigma-Aldrich type VI-S
T2 sequence (O42275 24-633): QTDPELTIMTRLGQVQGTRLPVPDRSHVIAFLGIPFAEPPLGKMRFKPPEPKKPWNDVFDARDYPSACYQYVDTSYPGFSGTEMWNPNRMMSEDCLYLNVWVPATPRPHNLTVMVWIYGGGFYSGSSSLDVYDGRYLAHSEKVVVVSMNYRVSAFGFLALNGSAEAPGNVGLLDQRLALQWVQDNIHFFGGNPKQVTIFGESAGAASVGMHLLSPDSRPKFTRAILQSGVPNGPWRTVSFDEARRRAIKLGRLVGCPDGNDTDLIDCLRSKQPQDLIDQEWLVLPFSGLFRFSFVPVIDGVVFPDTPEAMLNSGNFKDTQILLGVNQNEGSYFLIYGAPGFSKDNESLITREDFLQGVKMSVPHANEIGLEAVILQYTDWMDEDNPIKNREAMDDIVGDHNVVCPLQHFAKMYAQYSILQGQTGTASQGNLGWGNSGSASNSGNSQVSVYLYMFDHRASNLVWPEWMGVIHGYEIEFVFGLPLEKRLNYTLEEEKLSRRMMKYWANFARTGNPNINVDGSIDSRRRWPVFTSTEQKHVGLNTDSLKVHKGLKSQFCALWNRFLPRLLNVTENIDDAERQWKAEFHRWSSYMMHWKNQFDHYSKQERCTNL
Method: The enzyme was Electric eel AChE (EeAChE type VI-S, lyophilized powder, Sigma-Aldrich). We selected this source of AChE for consistency with our other reports and because of the purity, specific activity, and lower cost compared to human AChE.
The assay is based on the high level of fluorescence intensity of propidium iodide bound with AChE decreasing in the presence of test compounds that competitively displace propidium iodide from the AChE PAS [25, 27]. Specificially, EeAChE ([…] final concentration) is incubated with the test compound (20 μM in 1 mM Tris-HCl buffer pH 8.0, 25 °C, for 15 min). Propidium iodide (final concentration 8 μM) is then added for a further 15-min incubation and the fluorescence spectrum is taken (530 nm (excitation) and 600 nm (emission)). The same concentration of propidium iodide in the Tris-HCI buffer was used as the blank. Triplicate determinations were recorded from a FLUOStar Optima microplate reader and results calculated via the following equation:% Displacement = 100 − (IFAChE+ Propidium + inhibitor/IFAChE + Propidium) × 100(1) where IFAChE + Propidium = fluorescence intensity of propidium iodide associated with AChE in the absence of the test compound (taken as 100%), and IFAChE + Propidium + inhibitor = fluorescence intensity of propidium iodide associated with AChE in the presence of the test compound.

[4] = target: human erythrocyte AChE (Homo sapiens, UniProt P22303); assay: biochemical
Sequence of human erythrocyte AChE (P22303 other isoform, or with tags, fused parts or gaps): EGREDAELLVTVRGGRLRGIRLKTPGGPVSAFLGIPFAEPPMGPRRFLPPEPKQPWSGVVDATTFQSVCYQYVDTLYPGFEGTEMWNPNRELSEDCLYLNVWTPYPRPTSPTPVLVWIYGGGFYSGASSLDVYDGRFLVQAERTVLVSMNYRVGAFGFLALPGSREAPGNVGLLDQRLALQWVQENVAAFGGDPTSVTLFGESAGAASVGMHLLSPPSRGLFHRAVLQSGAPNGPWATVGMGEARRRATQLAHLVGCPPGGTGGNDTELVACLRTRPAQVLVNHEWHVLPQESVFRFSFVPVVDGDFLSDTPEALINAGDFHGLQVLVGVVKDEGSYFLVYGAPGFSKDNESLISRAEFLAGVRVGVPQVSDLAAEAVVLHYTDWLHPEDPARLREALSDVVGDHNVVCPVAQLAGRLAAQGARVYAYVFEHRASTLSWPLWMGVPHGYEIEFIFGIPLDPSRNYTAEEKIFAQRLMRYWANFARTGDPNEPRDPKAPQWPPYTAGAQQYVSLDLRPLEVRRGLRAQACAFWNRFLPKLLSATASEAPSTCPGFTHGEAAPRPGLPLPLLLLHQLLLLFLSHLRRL

[5] = test system: porcine liver CES; assay: CES inhibition, 4-NPA substrate; format: biochemical; conditions: compound concentration 20 µM
[6] = Ferric reducing antioxidant power (FRAP) assay; design: key: ratio of Trolox to test compound concentration giving same FRAP effect; conditions: Trolox equivalents; compound concentration 20 µM
Method: The ferric reducing antioxidant power (FRAP) assay proposed by Benzie and Strain [106, 107] was modified to be performed in 96-well microplates, as described in detail in [32]. The FRAP reagent contained 2.5 mL of 10 mM TPTZ (2,4,6-tris(2-pyridyl)-s-triazine, Sigma-Aldrich) solution in 40 mM HCl, 2.5 mL of 20 mM FeCl3 (Sigma-Aldrich) in distilled water and 25 mL of 0.3 M acetate buffer (pH 3.6). Aliquots of 10 µL of the tested compound (compounds 3, 5 or reference substance) dissolved in DMSO (0.5 mM) were placed in quadruplicate. Absorbance was measured at the wavelength of 593 nm after 60-min incubation at 37 °C. In each case, Trolox was used as a reference compound to obtain the standard curve and value was calculated with respect to the activity of Trolox and expressed as Trolox equivalents (TE)—the values calculated as the ratio of the concentrations of Trolox and the test compound, resulting in the same effect on ferric reducing activity.

[7] = target: β-amyloid (1–42) (Aβ42) (Homo sapiens, UniProt P05067); assay: Inhibition of Aβ42 self-aggregation, Thioflavin T fluorescence; format: biochemical; conditions: Aβ42 50 µM, compound 100 µM
Sequence of β-amyloid (1–42) (Aβ42) (P05067 672-713): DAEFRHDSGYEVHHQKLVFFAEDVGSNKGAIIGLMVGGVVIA
Method: The inhibitory effect of the test compounds toward Aβ42 self-aggregation was determined using the Thioflavin T (ThT) fluorescence method with minor modifications. […] Therefore, the decrease in ThT fluorescence correlates with the activity of studied compounds to inhibit the formation of amyloid aggregates.
A total of 1 mg of lyophilized HFIP-pretreated Aβ42 from rPeptide (Watkinsville, GA, USA) was dissolved in DMSO to obtain a stable initial solution ([Aβ42] = 500 μM), then it was aliquoted and stored at −20 °C.
Then, the samples were incubated for 24 h at 37 °C without stirring in the absence (base level of Aβ42 self-aggregation, control) or presence of the test compounds. Myricetin and propidium iodide were used as references (positive controls). All compounds were used at a concentration of 100 µM. […] Analyses were performed with a FLUOStar Optima microplate reader (LabTech, Ortenberg, Germany). […] Each assay was run in triplicate.

[8] = mean ± SEM, read-out: Equine Serum BChE, IC50

Structure (SMILES)	ABTS•+-Scavenging Activity, TEAC [1]	IC50 [2, 8] [µM]	Displacement of Propidium from EeAChE PAS [3] [%]	IC50 [4] [µM]	Porcine Liver CES, (%) inhibition [5]	FRAP, TE [6]	IC50 [1]	inhibition at 100 µM [7] [%]	Inhibition of Aβ42 Self-Aggregation [7] [%]	IC50 ([2]; MEAN ± SEM, read-out: IC50 for BChE inhibition (Figure S25)) [µM]
Nc1c2c(nc3c1CCC3)CCCC2 [Amiridine]	0.04 ± 0.003	–	–	–	–	–	–	–	–	–
O=C(CNCCCCCCNCC(=O)Nc1c2c(nc3c1CCC3)CCCC2)Nc1c2c(nc3c1CCC3)CCCC2 [Compound 3d]	–	1.11 ± 0.04	11.2 ± 0.8	1.39 ± 0.1	6.0 ± 0.6%	–	–	–	–	–
S=C(NCCCNC(=S)Nc1c2c(nc3c1CCC3)CCCC2)Nc1c2c(nc3c1CCC3)CCCC2 [Compound 5b]	1.9 ± 0.08	0.689 ± 0.025	9.3 ± 0.8	10.9 ± 1	4.2 ± 0.5%	0.50 ± 0.03	9.9 ± 0.5 µM	1.6 ± 0.1	–	–
CC[N+](C)(CC)CCC[n+]1c(-c2ccccc2)c2cc(N)ccc2c2ccc(N)cc21.[I-].[I-] [Propidium iodide, reference compound]	–	–	–	–	–	–	–	–	90.7 ± 7.1	–
S=C(NCCCCNC(=S)Nc1c2c(nc3c1CCC3)CCCC2)Nc1c2c(nc3c1CCC3)CCCC2 [Compound 5c]	1.8 ± 0.05	0.802 ± 0.081	10.0 ± 0.8	7.53 ± 0.59	9.6 ± 0.8%	0.35 ± 0.02	9.7 ± 0.6 µM	17.2 ± 1.5	–	–
O=C(CNCCCCCCCCNCC(=O)Nc1c2c(nc3c1CCC3)CCCC2)Nc1c2c(nc3c1CCC3)CCCC2 [Compound 3e]	0.04 ± 0.002	6.65 ± 0.5	13.2 ± 1.0	11.7 ± 1.1	5.1 ± 0.9%	0.05 ± 0.01	> 200 µM	–	–	–
S=C(NCCCCCCCCNC(=S)Nc1c2c(nc3c1CCC3)CCCC2)Nc1c2c(nc3c1CCC3)CCCC2 [Compound 5g]	1.5 ± 0.07	1.45 ± 0.09	2.2 ± 0.2	26.6 ± 0.6	15.9 ± 1.5%	0.85 ± 0.03	10.8 ± 0.6 µM	5.2 ± 0.4	–	–
O=C(CNCCCNCC(=O)Nc1c2c(nc3c1CCC3)CCCC2)Nc1c2c(nc3c1CCC3)CCCC2 [Compound 3b]	0.05 ± 0.003	0.128 ± 0.002	14.7 ± 1.2	2.91 ± 0.74	4.4 ± 0.5%	0.05 ± 0.01	> 200 µM	–	–	–
O=[N+]([O-])c1ccc(OP(=O)(O)Oc2ccc([N+](=O)[O-])cc2)cc1 [BNPP, bis-4-nitrophenyl phosphate, reference compound]	–	–	–	–	99.1 ± 0.93 ^3%	–	–	–	–	–
O=C(CNCCCCNCC(=O)Nc1c2c(nc3c1CCC3)CCCC2)Nc1c2c(nc3c1CCC3)CCCC2 [Compound 3c]	0.10 ± 0.005	0.067 ± 0.001	17.7 ± 1.4	1.46 ± 0.03	0.8 ± 0.2%	–	~200 µM	–	–	0.0696
Cc1c(C)c2c(c(C)c1O)CCC(C)(C(=O)O)O2 (stereo not shown) [Trolox, 6-hydroxy-2,5,7,8-tetramethylchroman-2-carboxylic acid, reference compound]	1.0	–	–	–	–	1.0	20 µM and 20.1 µM	–	–	–
